# Data taken from patent US10933091B1, “Composition and method for the treatment of type I diabetes” (Vector Vitale IP LLC, priority 2019, dated 2021).
# What was measured:
# [1] = system: peripheral serotonergic system (duodenum); test: Indicators of the peripheral serotonergic system (duodenum); type: in vivo, rats
# From the text: (§1) The tissue: buffer ratio was 1:10.
# (§2) The samples were reprecipitated by centrifugation.
# (§3) University. Medicine.-2000.-1, No. 494.-P. 40-43.
# (§4) The supernatant was used in further studies.
# [2] = system: tryptophan, serotonin, monoamine oxidase; test: Serum tryptophan, serotonin and monoamine oxidase activity; type: in vivo, rats
# From the text: as §2, §3
# [3] = system: central serotonergic system (brain); test: Indicators of the central serotonergic system (brain); type: in vivo, rats
# From the text: as §1, §2, §3, §4
# alkaline phosphatase = details: serum; DIO rats (high-fat diet), week 10
# Description: To this end, high-fat diet obesity was induced in experimental animals as described in Example 2.
# Serum alkaline phosphatase activity in the animals was measured spectrophotometrically using a Microlab 300 biochemical analyzer and standard PLIVA-Lachema Diagnostika test kits (Czech Republic).
# As a result of hydrolytic cleavage of p-nitrophenyl phosphate catalyzed by alkaline phosphatase, p-nitrophenol is formed, which gives an intense yellow color in alkaline medium. The optical density of samples was measured at a wavelength of 405 nm. The alkaline phosphatase activity was expressed in relative units.
# [4] = Levels of divalent metal ions in muscles, kidneys and liver, diet-induced obesity study; details: DIO rats (high-fat diet)
# [5] = Intraperitoneal administration to intact rats: accumulation of metals in liver and kidney tissues; details: day 1 and day 7 after discontinuation, in words
# Description: The administration of these compositions was by intraperitoneal route.
# Animals are placed in cages, 4 per cage, with free access to food/water. […] Administration is performed every other day, in the amount of 7 injections per animal (intraperitoneal method of drug administration). The dose of the drug injected to each animal was calculated on the basis of the ratio: 3750 μg of zinc per 1 kg of animal body weight. After the last injection, a half of the animals are maintained on hunger (for 12 hours) with free access to water. Upon expiration of this time period, the animals are taken out of the experiment. The second half of the animals continues to have free access to food/water for a further 7 days. On day 6 after the last injection, the animals are maintained on hunger (for 12 hours) with free access to water. Upon expiration of this time period, the animals are taken out of the experiment.
# The total kidney, liver and muscle homogenates were prepared as follows. Organ excision and homogenization were carried out at a temperature of 1-4° C. Homogenization of tissues was carried out in 50 mM Tris-HCl buffer (pH 7.4) which contained 140 mM NaCl, 1 mM EDTA. The volume of the used buffer in ml was 5 times larger than the mass of isolated organs in grams. The isolated liver was perfused with chilled saline (0.9% NaCl) via the portal vein using a syringe. […]
# [6] = Serum biochemistry (albumin, triglycerides, cholesterol, free fatty acids), diet-induced obesity study; details: DIO rats (high-fat diet), week 10
# Description: The levels of serum albumin in the animals were determined spectrophotometrically using a Microlab 300 biochemistry analyzer and standard PLIVA-Lachema Diagnostika test kits (Czech Republic).
compound,measurement,setting,value
"N[C@@H](CC(=O)[O-])C(=O)[O-].[Zn+2] [^64Zne, zinc aspartate]",Serotonin,[1]; DIO rats (high-fat diet),9.73 µg/g
same,Tryptophan,[1]; DIO rats (high-fat diet),89.4 µg/g
same,Serotonin,[1]; control rats (standard diet),7.41 ± 0.54 µg/g
same,Tryptophan,[1]; control rats (standard diet),154.7 ± 13.6 µg/g
same,Serotonin,[2]; DIO rats (high-fat diet),6.33 ± 0.51 µg/g
same,Tryptophan,[2]; DIO rats (high-fat diet),66.65 ± 9.62 µg/g
same,Serotonin,[2]; control rats (standard diet),10.16 ± 0.62 µg/g
same,Tryptophan,[2]; control rats (standard diet),56.12 ± 7.58 µg/g
same,Serotonin,[3]; DIO rats (high-fat diet),20.1 µg/g
same,Tryptophan,[3]; DIO rats (high-fat diet),31.56 µg/g
same,Serotonin,[3]; control rats (standard diet),25.51 ± 2.71 µg/g
same,Tryptophan,[3]; control rats (standard diet),87.71 ± 3.41 µg/g
same,Alkaline phosphatase activity,alkaline phosphatase,87.6 ± 18.7 RU
same,Zinc level,[4]; kidneys,20.28 ± 1.75 μg/ tissue
same,Zinc level,[4]; liver,31.43 ± 1.78 μg/ tissue
same,Zinc level,[4]; muscles,9.10 ± 0.42 μg/ tissue
same,zinc level in kidney and liver tissues,[5],significantly increased
same,Albumin levels,[6],166.2 ± 15.8 RU
same,Cholesterol,[6],2.83 ± 0.23 mmol/L
same,Free fatty acids,[6],31.62 ± 7.92 mg/L
same,Triglycerides,[6],2.79 ± 0.30 g/L
"CC(=O)[O-].CC(=O)[O-].[Zn+2] [Zn acetate, Zinc acetate, reference compound]",zinc level in kidney and liver tissues,[5],significantly increased
